Test results as given in US12564582B2 (Prilenia Neurotherapeutics Ltd., priority 2016, dated 2026).
Read-outs that look alike come from different tables or passages of the source.

Columns and labels:
[1] = system: patients with Huntington's disease
Description: In the UHDRS, maximal dystonia was scored from 0 (absent) to 4 (marked/prolonged) on each of the following items: trunk, right upper extremity, left upper extremity, right lower extremity, and left lower extremity. Maximal dystonia is the sum of all scores.

[2] = system: patients with Huntington's disease; remark: listed apart in the source
Experimental: These variables were analyzed in the same way as the primary efficacy endpoint except that the variable evaluation at baseline were included in the model instead of baseline UHDRS-TMS.

[3] = system: patients with Huntington's disease; conditions: Week 52
Description: Motor deficits can be objectively assessed using different Q-Motor assessments. All Q-Motor assessments are based on the application of precalibrated and temperature controlled force transducers and 3-dimensional position sensors with very high sensitivity and test-retest reliability across sessions and sites in a multicenter clinical study. Q-Motor measures thus aim to reduce the limited sensitivity of categorical clinical rating scales, the intra- and inter-rater variability, and placebo effects observed in scales such as UHDRS-TMS. In addition, Q-Motor assessments allow for the objective monitoring of unintended motor side-effects in clinical studies. Thus, Q-Motor is an objective, reliable, and sensitive measure of motor function that is free of rater bias and limits placebo effect influence.
This task assessed the regularity of hand taps performed when alternating between the palm and dorsal surface of the hand performing a repetitive pronation/supination movement. The force and duration of the hand taps are recorded similarly to the speeded tapping task. A tone cues the start and end of an assessment. Five trials of 10 seconds duration are performed with each hand.

[4] = system: patients with Huntington's disease; conditions: after 26 weeks of treatment
Description: The TFC scale of the UHDRS is a standardized scale used to assess 5 functional domains associated with disability shown below (occupation, finances, domestic chores (e.g. laundry, washing dishes), activities of daily living, and care level).

[5] = system: patients with Huntington's disease; conditions: for Δ to placebo, change from baseline in Q-Motor: Tap-Speed-Inter-Onset-interval-MN-Hand: Week 52
Description: The patient places their hand on a hand rest with their index finger positioned above a force-transducer. Recordings start after practice runs. The patient is instructed to finger tap as fast as possible between 2 auditory cues. The beginning of a tap is defined as a rise of the force by 0.05 N above maximal baseline level. The tap ends when it drops to 0.05 N before the maximal baseline level is reached again. The duration and variability of tap durations (TD), inter onset intervals (IOI), inter peak intervals (IPI), and inter tap intervals (ITI) are the exploratory outcome measures for speeded tapping. In addition, variability of peak tapping forces (TF) is calculated as coefficient of variation, and the tapping frequency (Freq), i.e., the number of taps between the onsets of the first and the last tap divided by the time in between, is determined. Five trials of 10 seconds duration are performed with each hand.

[6] = system: patients with Huntington's disease; conditions: 45 mg bid
[7] = system: patients with Huntington's disease; conditions: 45 mg b.i.d, pooled MermaiHD, HART and Pride-HD, BL dystonia ≥4
[8] = system: patients with DYT1 and other primary genetic forms of dystonia; conditions: 45 mg b.i.d., 90 mg b.i.d.; 26 weeks
Description: The study population consists of those with DYT1 and other primary genetic forms of dystonia, as confirmed by genetic testing. The study's other inclusion criteria are patients with a BFMD score greater than 6, male or female patients, patients of any race or ethnicity, and patients with the ability to provide informed consent.
Burke-Fahn-Marsden Dystonia Rating Scale (BFMDRS) Rating Scale evaluates nine body parts (eyes, mouth, speech, swallowing, neck, trunk, right arm, right leg, left arm, and left leg) by rating the severity factor and provoking factors for each part on a 5 point scale of 0 (no dystonia) to 4 (indicating the presence of dystonia at rest). The dystonia scores of the eyes, mouth and neck are assigned a weighting factor of 0.5, while the other 6 parts are assigned a weighting factor of 1.0. The score of each part is obtained by multiplying the provoking factor by the severity factor and the weighting factor, and then summing the scores of each part. The maximum score possible is 120. A higher score indicates more severe dystonia. […]

[9] = system: human patients afflicted with dystonia; conditions: periodic (daily or twice daily) oral administration
neuroblastoma cell line = conditions: SIR-dependent manner (Geva 2016); cited from earlier work
[10] = 45 mg bid, Week 26, Stage 1 BL TFC 11-13
[11] = 45 mg bid, Week 52, Stage 1 BL TFC 11-13
[12] = 45 mg bid, Week 52, all pridopidine treated patients
[13] = 67.5 mg bid, Week 26, Stage 1 BL TFC 11-13
[14] = 67.5 mg bid, Week 52, Stage 1 BL TFC 11-13
[15] = 67.5 mg bid, Week 52, all pridopidine treated patients
[16] = 90 mg bid, Week 26, Stage 1 BL TFC 11-13
[17] = 90 mg bid, Week 52, Stage 1 BL TFC 11-13
[18] = 90 mg bid, Week 52, all pridopidine treated patients
[19] = 112.5 mg bid, Week 26, Stage 1 BL TFC 11-13
[20] = 112.5 mg bid, Week 52, Stage 1 BL TFC 11-13
[21] = 112.5 mg bid, Week 52, all pridopidine treated patients
[22] = 45 mg bid, HD1 and HD2 patients
[23] = 67.5 mg bid, HD1 and HD2 patients
[24] = 90 mg bid, HD1 and HD2 patients
[25] = 112.5 mg bid, HD1 and HD2 patients

SMILES: CCCN1CCC(c2cccc(S(C)(=O)=O)c2)CC1 [pridopidine, 4-[3-(methylsulfonyl)phenyl]-1-propyl-piperidine]
- Δ to placebo, change from baseline in UHDRS TMS Dystonia ([1]; 45 mg bid, Week 26, ALL): −0.06
- Δ to placebo, change from baseline in UHDRS TMS Dystonia [1, 10]: −0.99
- Δ to placebo, change from baseline in UHDRS TMS Dystonia [1, 11]: −1.65
- Δ to placebo, change from baseline in UHDRS TMS Dystonia [1, 12]: −0.39
- Δ to placebo, change from baseline in UHDRS TMS Dystonia ([1]; 45 mg bid, week 26, BL TFC ≥9 and CAG Repeats <44 and BL TMS 1st 3 Qs): −1.53
- Δ to placebo, change from baseline in UHDRS TMS Dystonia ([1]; 45 mg bid, week 26, BL TFC≥9 AND CAG Repeats <44): −1.54
- Δ to placebo, change from baseline in UHDRS TMS Dystonia ([1]; 45 mg bid, week 26, CAG Repeats <44 AND BL TMS 1st 3 Qs): −1.04
- Δ to placebo, change from baseline in UHDRS TMS Dystonia ([1]; 67.5 mg bid, Week 26, ALL): −0.34
- Δ to placebo, change from baseline in UHDRS TMS Dystonia [1, 13]: −0.89
- Δ to placebo, change from baseline in UHDRS TMS Dystonia [1, 14]: −0.1
- Δ to placebo, change from baseline in UHDRS TMS Dystonia [1, 15]: −0.35
- Δ to placebo, change from baseline in UHDRS TMS Dystonia ([1]; 67.5 mg bid, week 26, BL TFC ≥9 and CAG Repeats <44 and BL TMS 1st 3 Qs): −1.6
- Δ to placebo, change from baseline in UHDRS TMS Dystonia ([1]; 67.5 mg bid, week 26, BL TFC≥9 AND CAG Repeats <44): −1.58
- Δ to placebo, change from baseline in UHDRS TMS Dystonia ([1]; 67.5 mg bid, week 26, CAG Repeats <44 AND BL TMS 1st 3 Qs): −1.15
- Δ to placebo, change from baseline in UHDRS TMS Dystonia ([1]; 90 mg bid, Week 26, ALL): −0.33
- Δ to placebo, change from baseline in UHDRS TMS Dystonia [1, 16]: −1.56
- Δ to placebo, change from baseline in UHDRS TMS Dystonia [1, 17]: −1.46
- Δ to placebo, change from baseline in UHDRS TMS Dystonia [1, 18]: −0.27
- Δ to placebo, change from baseline in UHDRS TMS Dystonia ([1]; 90 mg bid, week 26, BL TFC ≥9 and CAG Repeats <44 and BL TMS 1st 3 Qs): −1.64
- Δ to placebo, change from baseline in UHDRS TMS Dystonia ([1]; 90 mg bid, week 26, BL TFC≥9 AND CAG Repeats <44): −1.72
- Δ to placebo, change from baseline in UHDRS TMS Dystonia ([1]; 90 mg bid, week 26, CAG Repeats <44 AND BL TMS 1st 3 Qs): −1
- Δ to placebo, change from baseline in UHDRS TMS Dystonia ([1]; 112.5 mg bid, Week 26, ALL): −0.29
- Δ to placebo, change from baseline in UHDRS TMS Dystonia [1, 19]: −0.53
- Δ to placebo, change from baseline in UHDRS TMS Dystonia [1, 20]: −0.46
- Δ to placebo, change from baseline in UHDRS TMS Dystonia [1, 21]: −0.24
- Δ to placebo, change from baseline in UHDRS TMS Dystonia ([1]; 112.5 mg bid, week 26, BL TFC ≥9 and CAG Repeats <44 and BL TMS 1st 3 Qs): −1.29
- Δ to placebo, change from baseline in UHDRS TMS Dystonia ([1]; 112.5 mg bid, week 26, BL TFC≥9 AND CAG Repeats <44): −1.4
- Δ to placebo, change from baseline in UHDRS TMS Dystonia ([1]; 112.5 mg bid, week 26, CAG Repeats <44 AND BL TMS 1st 3 Qs): −0.62
- dystonia score, change from baseline ([1]; baseline total dystonia score≥4, Week 52, all treatment groups, greatest decreases for 45, 67.5 and 90 mg bid): directional clinical improvement
- dystonia score, change from baseline ([1]; full analysis set, Week 26 or Week 52, all active treatment groups): no clinically meaningful changes from baseline
- Δ to placebo, change from baseline in UHDRS TMS Excluding Dystonia ([2]; 45 mg bid, Week 26, ALL): 1.39
- Δ to placebo, change from baseline in UHDRS TMS Involuntary Movements ([2]; 45 mg bid, Week 26, ALL): 0.89
- Δ to placebo, change from baseline in UHDRS TMS Excluding Dystonia [2, 10]: −3.6
- Δ to placebo, change from baseline in UHDRS TMS Involuntary Movements [2, 10]: −2.49
- Δ to placebo, change from baseline in UHDRS TMS Excluding Chorea [2, 11]: −4.09
- Δ to placebo, change from baseline in UHDRS TMS Involuntary Movements [2, 11]: −2.73
- Δ to placebo, change from baseline in UHDRS TMS Excluding Chorea [2, 12]: 0.05
- Δ to placebo, change from baseline in UHDRS TMS Involuntary Movements [2, 12]: 0.02
- Δ to placebo, change from baseline in UHDRS TMS Excluding Dystonia ([2]; 67.5 mg bid, Week 26, ALL): 1.97
- Δ to placebo, change from baseline in UHDRS TMS Involuntary Movements ([2]; 67.5 mg bid, Week 26, ALL): 0.48
- Δ to placebo, change from baseline in UHDRS TMS Excluding Dystonia [2, 13]: −2.2
- Δ to placebo, change from baseline in UHDRS TMS Involuntary Movements [2, 13]: −3.07
- Δ to placebo, change from baseline in UHDRS TMS Excluding Chorea [2, 14]: −0.18
- Δ to placebo, change from baseline in UHDRS TMS Involuntary Movements [2, 14]: −0.2
- Δ to placebo, change from baseline in UHDRS TMS Excluding Chorea [2, 15]: 1.31
- Δ to placebo, change from baseline in UHDRS TMS Involuntary Movements [2, 15]: 0.8
- Δ to placebo, change from baseline in UHDRS TMS Excluding Dystonia ([2]; 90 mg bid, Week 26, ALL): 1.2
- Δ to placebo, change from baseline in UHDRS TMS Involuntary Movements ([2]; 90 mg bid, Week 26, ALL): 0.01
- Δ to placebo, change from baseline in UHDRS TMS Excluding Dystonia [2, 16]: −4.35
- Δ to placebo, change from baseline in UHDRS TMS Involuntary Movements [2, 16]: −4
- Δ to placebo, change from baseline in UHDRS TMS Excluding Chorea [2, 17]: −4.92
- Δ to placebo, change from baseline in UHDRS TMS Involuntary Movements [2, 17]: −3.8
- Δ to placebo, change from baseline in UHDRS TMS Excluding Chorea [2, 18]: 1.67
- Δ to placebo, change from baseline in UHDRS TMS Involuntary Movements [2, 18]: −0.26
- Δ to placebo, change from baseline in UHDRS TMS Excluding Dystonia ([2]; 112.5 mg bid, Week 26, ALL): 2.4
- Δ to placebo, change from baseline in UHDRS TMS Involuntary Movements ([2]; 112.5 mg bid, Week 26, ALL): 0.76
- Δ to placebo, change from baseline in UHDRS TMS Excluding Dystonia [2, 19]: −4.31
- Δ to placebo, change from baseline in UHDRS TMS Involuntary Movements [2, 19]: −1.64
- Δ to placebo, change from baseline in UHDRS TMS Excluding Chorea [2, 20]: −1.59
- Δ to placebo, change from baseline in UHDRS TMS Involuntary Movements [2, 20]: 0.8
- Δ to placebo, change from baseline in UHDRS TMS Excluding Chorea [2, 21]: 1.94
- Δ to placebo, change from baseline in UHDRS TMS Involuntary Movements [2, 21]: 0.57
- Wk 52 Δ to placebo, change from baseline in Q-Motor: Pro-Sup-Frequency-MN-Hand ([3]; 45 mg bid, FAS): 0.0599 Hz
- Wk 52 Δ to placebo, change from baseline in Q-Motor: Pro-Sup-Frequency-MN-Hand [3, 22]: 0.1195 Hz
- Wk 52 Δ to placebo, change from baseline in Q-Motor: Pro-Sup-Frequency-MN-Hand ([3]; 67.5 mg bid, FAS): −0.0124 Hz
- Wk 52 Δ to placebo, change from baseline in Q-Motor: Pro-Sup-Frequency-MN-Hand [3, 23]: 0.0548 Hz
- Wk 52 Δ to placebo, change from baseline in Q-Motor: Pro-Sup-Frequency-MN-Hand ([3]; 90 mg bid, FAS): −0.0087 Hz
- Wk 52 Δ to placebo, change from baseline in Q-Motor: Pro-Sup-Frequency-MN-Hand [3, 24]: 0.0575 Hz
- Wk 52 Δ to placebo, change from baseline in Q-Motor: Pro-Sup-Frequency-MN-Hand ([3]; 112.5 mg bid, FAS): 0.0127 Hz
- Wk 52 Δ to placebo, change from baseline in Q-Motor: Pro-Sup-Frequency-MN-Hand [3, 25]: 0.08 Hz
- Total Functional Capacity (TFC) [4]: trends favoring pridopidine
- Δ to placebo, change from baseline in Q-Motor: Tap-Speed-Inter-Onset-interval-MN-Hand ([5]; 45 mg bid, FAS): -0.0402 s
- Δ to placebo, change from baseline in Q-Motor: Tap-Speed-Inter-Onset-interval-MN-Hand [5, 22]: -0.0351 s
- Δ to placebo, change from baseline in Q-Motor: Tap-Speed-Inter-Onset-interval-MN-Hand ([5]; 67.5 mg bid, FAS): 0.0152 s
- Δ to placebo, change from baseline in Q-Motor: Tap-Speed-Inter-Onset-interval-MN-Hand [5, 23]: -0.0464 s
- Q-Motor Tap Speed Inter Onset interval (IOI) ([5]; 90 mg bid): consistent and significant improvement from baseline
- Q-Motor Tap-Speed-Frequency ([5]; 90 mg bid): consistent improvement from baseline
- Δ to placebo, change from baseline in Q-Motor: Tap-Speed-Inter-Onset-interval-MN-Hand ([5]; 90 mg bid, FAS): -0.0064 s
- Δ to placebo, change from baseline in Q-Motor: Tap-Speed-Inter-Onset-interval-MN-Hand [5, 24]: -0.0291 s
- Δ to placebo, change from baseline in Q-Motor: Tap-Speed-Inter-Onset-interval-MN-Hand ([5]; 112.5 mg bid, FAS): -0.017 s
- Δ to placebo, change from baseline in Q-Motor: Tap-Speed-Inter-Onset-interval-MN-Hand [5, 25]: -0.022 s
- Responders, UHDRS TMS dystonia (improved or no change) ([6]; BL dystonia score ≥4, completed 52 weeks, FIG. 16a, placebo 60.0%): 77.8%
- Responders, UHDRS TMS dystonia (improved, change≥1) ([6]; BL dystonia score ≥4, completed 52 weeks, FIG. 16b, placebo […]): 66.7%
- Responders, UHDRS-Limb Dystonia item (improved, change≥1) ([6]; BL dystonia score ≥4, completed 52 weeks, placebo […]): 77.2%
- Responders, chorea+dystonia items ([6]; placebo 66.7%): 77.8%
- UHDRS Dystonia score compared to placebo ([7]; Week 26): statistically significant improvement
- UHDRS Dystonia score compared to placebo ([7]; Week 52): trend toward this improvement was maintained
- secondary outcomes (CGI, Patient Global Assessment, VAS pain, BFMDS, EQ-5D, SF-36 etc.) [8]: improve the secondary outcomes
- severity of dystonia (BFMDRS or UDRS), primary endpoint [8]: improve the severity of dystonia
- dystonia in afflicted patients [9]: effective to reduce dystonia
- secretion of brain-derived neurotrophic factor (BDNF) (neuroblastoma cell line): enhances secretion
